Measured values reported in patent publication US20090312521A1 (priority 2004, published 2009).
In brackets after ≈: the same amount, converted by molar mass. Non-standard residues stand in square brackets, D forms with d. Residues, ends and D or L forms follow the SMILES beside them. βAla = NCCC(=O)O

Columns and labels:
Serratia marcescens = experiment: Additional antimicrobial test (MIC); type: cell-based; conditions: Gram −, NB, 22 ° C.
[1] = test system: Erwinia carotovora atroseptica; experiment: Additional antimicrobial test (MIC); type: cell-based; conditions: Gram −, NB/BHI, 28/37 ° C.

SMILES	MIC (Erwinia herbicola) [µM]	MIC (Enterobacter aerogenes) [µM]	MIC (Erwinia chrysanthemi) [µM]	MIC (Serratia marcescens)	MIC [1]
CC[C@H](C)[C@H](NC(=O)[C@@H]1CCCN1C(=O)[C@H](CCCNC(=N)N)NC(=O)[C@@H]1CCCN1C(=O)[C@H](Cc1c[nH]cn1)NC(=O)[C@H](CO)NC(=O)[C@@H](NC(=O)[C@@H]1CCCN1C(=O)[C@H](CCCNC(=N)N)NC(=O)[C@@H]1CCCN1C(=O)[C@@H](NC(=O)[C@H](Cc1ccc(O)cc1)NC(=O)[C@@H]1CCCN1C(=O)[C@H](CCCNC(=N)N)NC(=O)[C@@H]1CCCN1C(=O)[C@H](CCCCN)NC(=O)CCN)[C@@H](C)O)[C@@H](C)O)C(=O)N[C@@H](CCCNC(=N)N)C(=O)N[C@H](C(=O)O)C(C)C [Peptide 14, βAlaKPRP YTPRP TSHPR PIRV] (H-[βAla]KPRPYTPRPTSHPRPIRV-OH; N-terminus assumed)	6.75 (≈ 15 µg/mL)	100 (≈ 223 µg/mL)	100 (≈ 223 µg/mL)	NI at ≦100 μM	NI at ≦100 μM
CC[C@H](C)[C@H](NC(=O)[C@@H]1CCCN1C(=O)[C@H](CCCNC(=N)N)NC(=O)[C@@H]1CCCN1C(=O)[C@H](Cc1c[nH]cn1)NC(=O)[C@H](CO)NC(=O)[C@@H](NC(=O)[C@@H]1CCCN1C(=O)[C@H](CCCNC(=N)N)NC(=O)[C@@H]1CCCN1C(=O)[C@@H](NC(=O)[C@H](Cc1ccc(O)cc1)NC(=O)[C@@H]1CCCN1C(=O)[C@H](CCCNC(=N)N)NC(=O)[C@@H]1CCCN1C(=O)[C@H](CCCCN)NC(=O)CN)[C@@H](C)O)[C@@H](C)O)C(=O)N[C@@H](CCCNC(=N)N)C(=O)N[C@H](C(=O)O)C(C)C [Peptide 4, GKPRP YTPRP TSHPR PIRV] (H-GKPRPYTPRPTSHPRPIRV-OH; N-terminus assumed)	6.75 (≈ 14.9 µg/mL)	100 (≈ 221 µg/mL)	50 (≈ 111 µg/mL)	NI at ≦100 μM	NI at ≦100 μM
